Data set [1] is described as follows: Acute toxicity (LD50, single intravenous administration). Further details: species or system day mice. The following applies: mouse, in vivo, mice, single i.v. From the text: In Table 15 are shown acute toxicity values (LD50, mg/kg) in day mice in the case of intravenously administering (once) each of the compounds of this invention in the form of preparations shown in the Preparation Examples shown in Table 16.

The subject of data set [2] is P-388 leukemia cells. As to the kind of experiment: Antitumor activity against P-388 leukemia cells (i.p. implanted, i.v. drug). The data set is classed as in vivo, BDF1 mice. The note with it: Mus musculus, P388, iv, 720 h, i.v., 30-day observation, read-out: T/C of MST; for response vs control in vivo at 80 mg/kg: dose f: 80 mg/kg/d × 3 (days 1, 5, 9); for response vs control in vivo at 40 mg/kg: dose c: 40 mg/kg/d × 3 (days 1, 5, 9); for response vs control in vivo at 20 mg/kg/day: dose b': 20 mg/kg/d × 2 (days 1, 5); for response vs control in vivo at 40 mg/kg/day: dose c': 40 mg/kg/d × 2 (days 1, 5); for response vs control in vivo at 20 mg/kg: dose b: 20 mg/kg/d × 3 (days 1, 5, 9). The procedure: BDF1 mice were implanted intraperitoneally with P-388 leukemia cells at a rate of 1×10^6 cells/mouse, and each drug to be tested was administered intravenously on the first, fifth and ninth days, or on the first and fifth days after the implantation. […] The T/C (%) was calculated based on the following equation: [formula]
The drugs tested were as follows: solutions prepared by dissolving each of compound Nos. 34, 36 and 43 to 46 in physiological saline; suspension or solutions prepared by dissolving each of compound Nos. 35, 38 and 49 to 55 in dimethylacetamide, followed by adding thereto a small amount of a surface active agent (e.g., Tween-80) and then physiological saline; and suspension or solutions prepared by mixing each of the other compounds and a small amount of a surface active agent (e.g., Tween-80), followed by adding thereto physiological saline.

Counter-ions that a name gives are not always drawn.

Consider `COC1C(O)C(C)OC(OC2C(Oc3cccc4c(OC(=O)c5cc6ccccc6[nH]5)c5c(=O)oc6ccc(C)c7c(=O)oc(c34)c5c67)OC(C)C3OC(c4cccc(F)c4)OC32)C1O` (stereo not shown) [Compound 30, 6-O-(2-indolyl-carbonyl)-3',4'-O-(m-fluorobenzylidene)-chartreusin], for which the LD50 (as a rule, the dose at which mortality reaches 50%) in data set [1] (Preparation Example 2) is no less than 80 mg/kg. The response vs control in vivo at 80 mg/kg in data set [2] worked out at 142%.
For the molecule `COC1C(O)C(C)OC(OC2C(Oc3cccc4c(OC(=O)c5ccc[nH]5)c5c(=O)oc6ccc(C)c7c(=O)oc(c34)c5c67)OC(C)C3OC(c4cccc(Br)c4)OC32)C1O` (stereo not shown) [Compound 31], in data set [1] (Preparation Example 1), the LD50 was no less than 40 mg/kg. Moreover, the response vs control in vivo at 40 mg/kg in data set [2] is 128%.
`COC1C(O)C(C)OC(OC2C(Oc3cccc4c(OC(=O)C5CC(=O)CC(C)(C)O5)c5c(=O)oc6ccc(C)c7c(=O)oc(c34)c5c67)OC(C)C3OC(c4ccccc4)OC32)C1O` (stereo not shown) [Compound 32] showed an LD50 in data set [1] (Preparation Example 2) of no less than 40 mg/kg. In data set [2], the response vs control in vivo at 20 mg/kg/day stood at 185% and the response vs control in vivo at 40 mg/kg/day was found to be 213%.
With `COC1C(N)C(C)OC(OC2C(Oc3cccc4c(OC(=O)C(C)CN)c5c(=O)oc6ccc(C)c7c(=O)oc(c34)c5c67)OC(C)C3OC(c4ccccc4)OC32)C1O` (stereo not drawn) [Compound 34, 6-O-(β-amino-isobutyryl)-3',4'-benzylidene-4"-epiamino-4"-deoxy-chartreusin dihydrochloride], the LD50 in data set [1] (Preparation Example 8) was no less than 40 mg/kg. Besides, in data set [2], the response vs control in vivo at 20 mg/kg worked out at 140% and the response vs control in vivo at 40 mg/kg came out at 219%.
`CCOCCC(=O)Oc1c2cccc(OC3OC(C)C4OC(c5ccccc5)OC4C3OC3OC(C)C(N)C(OC)C3O)c2c2oc(=O)c3c(C)ccc4oc(=O)c1c2c43` (stereo not shown) [Compound 35]: in data set [1] (Preparation Example 6), the LD50 was no less than 40 mg/kg. Besides, in data set [2], the response vs control in vivo at 20 mg/kg worked out at 188% and the response vs control in vivo at 40 mg/kg turned out to be 244%.
In data set [1] (Preparation Example 8), `COC1C(N)C(C)OC(OC2C(Oc3cccc4c(OC(=O)CCN5CCCC5)c5c(=O)oc6ccc(C)c7c(=O)oc(c34)c5c67)OC(C)C3OC(c4ccccc4)OC32)C1O` (stereo not drawn) [Compound 36, 6-O-(β-1-pyrrolidinylpropionyl)-3',4'-O-benzylidene-4"-epiamino-4"-deoxy-chartreusin dihydrochloride] yielded an LD50 of no less than 20 mg/kg. In addition, in data set [2], the response vs control in vivo at 20 mg/kg was found to be 168%.
For the molecule `COC1C(N)C(C)OC(OC2C(Oc3cccc4c(OC(=O)CCCCCNC(=O)C(F)(F)F)c5c(=O)oc6ccc(C)c7c(=O)oc(c34)c5c67)OC(C)C3OC(c4ccccc4)OC32)C1O` (stereo not shown) [Compound 37, 6-O-(n-trifluoroacetyl-6-amino-n-hexanoyl)-3',4'-O-benzylidene-4"-epiamino-4"-deoxy-chartreusin hydrochloride], the LD50 in data set [1] (Preparation Example 1) was no less than 40 mg/kg. In data set [2], the response vs control in vivo at 20 mg/kg was 148% and the response vs control in vivo at 40 mg/kg was found to be 191%.
As to `COC1C(N)C(C)OC(OC2C(Oc3cccc4c(OC(=O)CCNC=O)c5c(=O)oc6ccc(C)c7c(=O)oc(c34)c5c67)OC(C)C3OC(c4cccc(Br)c4)OC32)C1O` (stereo not shown) [Compound 38], in data set [1] (Preparation Example 6), the LD50 is no less than 80 mg/kg. Besides, in data set [2], the response vs control in vivo at 80 mg/kg is 133%.
For `COC1C(N)C(C)OC(OC2C(Oc3cccc4c(OC(=O)CC(C)C)c5c(=O)oc6ccc(C)c7c(=O)oc(c34)c5c67)OC(C)C3OC(c4ccccc4)OC32)C1O` (stereo not shown) [Compound 39, 6-O-(3-methyl-n-butyryl)-3',4',-O-benzylidene-4"-epiamino-4"-deoxy-chartreusin hydrochloride], the LD50 in data set [1] (Preparation Example 9) is no less than 60 mg/kg. Also, the response vs control in vivo at 40 mg/kg in data set [2] turned out to be 207%. Also, the response vs control in vivo at 60 mg/kg in data set [2] (dose e: 60 mg/kg/d × 3 (days 1, 5, 9)) came out at 240%.
In data set [1] (Preparation Example 1), `COC1C(N)C(C)OC(OC2C(Oc3cccc4c(OC(=O)C(C)CNC(=O)C(F)(F)F)c5c(=O)oc6ccc(C)c7c(=O)oc(c34)c5c67)OC(C)C3OC(c4ccccc4)OC32)C1O` (stereo not shown) [Compound 40] had a 50% lethal dose (LD50) of no less than 40 mg/kg. Besides, in data set [2], the response vs control in vivo at 20 mg/kg was determined as 142% and the response vs control in vivo at 40 mg/kg was 219%.
`COC1C(N)C(C)OC(OC2C(Oc3cccc4c(OC(=O)CC(C)NC(=O)C(F)(F)F)c5c(=O)oc6ccc(C)c7c(=O)oc(c34)c5c67)OC(C)C3OC(c4ccccc4)OC32)C1O` (stereo not shown) [Compound 41] registered an LD50 in data set [1] (Preparation Example 1) of no less than 40 mg/kg. In data set [2], the response vs control in vivo at 40 mg/kg was found to be 187%.
Regarding `COC1C(N)C(C)OC(OC2C(Oc3cccc4c(OC(=O)CCNC=O)c5c(=O)oc6ccc(C)c7c(=O)oc(c34)c5c67)OC(C)C3OC(c4ccccc4)OC32)C1O` (stereo not shown) [Compound 42], the LD50 in data set [1] (Preparation Example 1) is no less than 40 mg/kg. Besides, in data set [2], the response vs control in vivo at 20 mg/kg worked out at 130% and the response vs control in vivo at 40 mg/kg was 199%.
`CNCCC(=O)Oc1c2cccc(OC3OC(C)C4OC(c5ccccc5)OC4C3OC3OC(C)C(N)C(OC)C3O)c2c2oc(=O)c3c(C)ccc4oc(=O)c1c2c43` (stereo not shown) [Compound 43]: in data set [1] (Preparation Example 8), the LD50 is no less than 40 mg/kg. Besides, in data set [2], the response vs control in vivo at 20 mg/kg stood at 150% and the response vs control in vivo at 40 mg/kg is 230%.
The corresponding values for `CNCC(C)C(=O)Oc1c2cccc(OC3OC(C)C4OC(c5ccccc5)OC4C3OC3OC(C)C(N)C(OC)C3O)c2c2oc(=O)c3c(C)ccc4oc(=O)c1c2c43` (stereo not shown) [Compound 44] are no less than 40 mg/kg, 138% and 148%.
Turning to `COC1C(N)C(C)OC(OC2C(Oc3cccc4c(OC(=O)C(CN)C(C)C)c5c(=O)oc6ccc(C)c7c(=O)oc(c34)c5c67)OC(C)C3OC(c4ccccc4)OC32)C1O` (stereo not shown) [Compound 45], the LD50 in data set [1] (Preparation Example 8) was no less than 30 mg/kg. In addition, in data set [2] (dose j: 30 mg/kg/d × 3 (days 1, 5, 9)), the response vs control in vivo at 30 mg/kg is 131%.
As for `COC1C(N)C(C)OC(OC2C(Oc3cccc4c(OC(=O)CCNC(=O)CN)c5c(=O)oc6ccc(C)c7c(=O)oc(c34)c5c67)OC(C)C3OC(c4ccccc4)OC32)C1O` (stereo not shown) [Compound 46], the LD50 in data set [1] (Preparation Example 8) is no less than 40 mg/kg. Moreover, the response vs control in vivo at 40 mg/kg in data set [2] was determined as 148%.
In the case of `COC1C(N)C(C)OC(OC2C(Oc3cccc4c(OC(=O)CCC(C)=O)c5c(=O)oc6ccc(C)c7c(=O)oc(c34)c5c67)OC(C)C3OC(c4ccccc4)OC32)C1O` (stereo not shown) [Compound 48], the LD50 in data set [1] (Preparation Example 1) is no less than 40 mg/kg. In data set [2], the response vs control in vivo at 20 mg/kg is 166% and the response vs control in vivo at 40 mg/kg stood at 219%.
`COC1C(N)C(C)OC(OC2C(Oc3cccc4c(OC(=O)C5CC5C)c5c(=O)oc6ccc(C)c7c(=O)oc(c34)c5c67)OC(C)C3OC(c4ccccc4)OC32)C1O` (stereo not shown) [Compound 49] showed an LD50 in data set [1] (Preparation Example 6) of no less than 40 mg/kg. Moreover, in data set [2], the response vs control in vivo at 40 mg/kg/day turned out to be 153%.
As for `COC1C(N)C(C)OC(OC2C(Oc3cccc4c(OC(=O)Cc5ccccc5)c5c(=O)oc6ccc(C)c7c(=O)oc(c34)c5c67)OC(C)C3OC(c4ccccc4)OC32)C1O` (stereo not shown) [Compound 50], in data set [1] (Preparation Example 7), the LD50 was no less than 40 mg/kg. Also, in data set [2], the response vs control in vivo at 20 mg/kg/day was found to be 165% and the response vs control in vivo at 40 mg/kg/day was found to be 208%.
For `COc1cccc(C(=O)Oc2c3cccc(OC4OC(C)C5OC(c6ccccc6)OC5C4OC4OC(C)C(N)C(OC)C4O)c3c3oc(=O)c4c(C)ccc5oc(=O)c2c3c54)c1` (stereo not shown) [Compound 51, 6-O-(m-methoxybenzoyl)-3',4'-O-benzylidene-4"-epiamino-4"-deoxy-chartreusin], in data set [1] (Preparation Example 6), the LD50 was no less than 40 mg/kg. In addition, in data set [2], the response vs control in vivo at 20 mg/kg stood at 185% and the response vs control in vivo at 40 mg/kg came out at 244%.
In data set [1] (Preparation Example 6), `COC1C(N)C(C)OC(OC2C(Oc3cccc4c(OC(=O)c5ccc(Cl)cc5)c5c(=O)oc6ccc(C)c7c(=O)oc(c34)c5c67)OC(C)C3OC(c4ccccc4)OC32)C1O` (stereo not shown) [Compound 52] had an LD50 of no less than 20 mg/kg. For the same molecule, in data set [2], the response vs control in vivo at 20 mg/kg was determined as 167%.
Turning to `COC1C(N)C(C)OC(OC2C(Oc3cccc4c(OC(=O)c5cccc(C(F)(F)F)c5)c5c(=O)oc6ccc(C)c7c(=O)oc(c34)c5c67)OC(C)C3OC(c4ccccc4)OC32)C1O` (stereo not shown) [Compound 53], in data set [1] (Preparation Example 6), the LD50 was no less than 40 mg/kg. Besides, in data set [2], the response vs control in vivo at 20 mg/kg stood at 131% and the response vs control in vivo at 40 mg/kg came out at 165%.
In turn, `CCCCCC(=O)Oc1c2cccc(OC3OC(C)C4OC(c5ccccc5)OC4C3OC3OC(C)C(N)C(OC)C3O)c2c2oc(=O)c3c(C)ccc4oc(=O)c1c2c43` (stereo not shown) [Compound 54] came in with an LD50 in data set [1] (Preparation Example 7) of no less than 40 mg/kg. The response vs control in vivo at 20 mg/kg/day in data set [2] stood at 165%.
The molecule `COC1C(N)C(C)OC(OC2C(Oc3cccc4c(OC(=O)CCNC(=O)c5ccccc5)c5c(=O)oc6ccc(C)c7c(=O)oc(c34)c5c67)OC(C)C3OC(c4cccc(F)c4)OC32)C1O` (stereo not shown) [Compound 55] yielded an LD50 in data set [1] (Preparation Example 6) of no less than 80 mg/kg. In addition, the response vs control in vivo at 80 mg/kg in data set [2] was determined as 133%.

Values taken from patent publication US4927919A, “Chartreusin derivatives and salts thereof” (Ishihara Sangyo Kaisha, Ltd., priority 1985, dated 1990).
